Reference: article PMC12705620 (Frontiers in Pharmacology, 2025)
Bridge positions count the residues as written; N and C are the ends. Square brackets hold non-standard residues; d marks the D form. Peptide text beside a SMILES is read from it. I, II: the chains in the order shown. Dap = NC[C@H](N)C(=O)O; Ahx = NCCCCCC(=O)O

How the values were obtained:
[1] = tested on: human skin fibroblast cells (BJ); experiment: Cytotoxicity (WST-1 and LDH); type: cell-based
Description: (§1) Cells (5 × 10^5 cells/mL) were seeded in 96-well plates (100 μL/well; Thermo Scientific) and allowed to adhere for 24 h. After adhesion, monolayers were exposed to two-fold serial dilutions of the tetrameric and reference peptides (final concentrations: 60–0.05 µM) in fresh DMEM containing 2% (v/v) FBS, and incubated for 24 h at 37 °C in a humidified 5% CO2 atmosphere. Cell viability was assessed using the water-soluble tetrazolium salt (WST-1; Roche) assay, and membrane integrity was measured using the lactate dehydrogenase (LDH) release assay (Abcam), following manufacturer instructions. Absorbance was measured using the Synergy H1 microplate reader (Biotek). Results are expressed as percentages relative to untreated control (for WST-1) and positive lysis control (for LDH) and all experiments were performed in triplicate.

[2] = tested on: HaCaT human keratinocytes; experiment: Cytotoxicity (WST-1 and LDH); type: cell-based
Description: as §1

S. aureus JAR060131 = experiment: Bactericidal (time-kill) kinetics; type: cell-based, Staphylococcus aureus; details: for Time to complete bacterial eradication: all tested concentrations (0.94, 1.88, 3.75 µM); for Log reduction in CFU: within 5 min at 3.75 µM
Description: (§2) Time-kill kinetics were evaluated against S. aureus JAR060131 and A. baumannii RUH875. Mid-logarithmic phase bacterial cultures were diluted to a final concentration of 1 × 10^6 CFU/mL in PBS. Bacteria were incubated with 0.5-, 2-, and 4-fold the LC99.9. Assays were conducted in polypropylene tubes (Micronics) with a total volume of 500 µL. Control samples consisted of bacteria incubated in PBS alone. At 1, 5, 30, and 120 min, 50 µL samples were collected and immediately added to 50 µL of 0.05% (v/v) sodium polyanethol sulfonate (SPS; Sigma-Aldrich) in PBS to neutralize residual peptide activity ([Dankert et al., 1995]). Viable bacterial counts were determined by plating 10 µL of serial 10-fold dilutions onto BA plates. Colonies were counted after 24 h of incubation at 37 °C. All conditions were performed in triplicate.

[3] = tested on: S. aureus LUH14616 (MRSA); experiment: Ex vivo human skin wound infection model; design: species or system Staphylococcus aureus
Description: Human skin from 3 donors was obtained via the Residual Tissue Biobank of the Red Cross Hospital (Beverwijk, Netherlands). The use of these coded, post-operative residual tissue samples was approved by patients through the informed opt-out-plus protocol of the Red Cross Hospital Skin ([Code-of-Conduct-for-Health-Research, 2022]) and processed for an ex vivo wound infection model as described ([Dijksteel et al., 2020]). The Wounded skin grafts were sectioned into approximately 1 cm^2 samples using a sterile scalpel and were decontaminated by immersion in 70% ethanol for 30 min, followed by three PBS washes. Samples were placed dermis-down and wound-side-up on stainless steel grids with central indentations, positioned in 12-well plates, and cultured at the air–liquid interface in DMEM at 37 °C and 5% CO2. To confine reagents to the wound area, a resin barrier (OpalDam; Ultradent) was applied to the wounded area and polymerized using a hand-held UV light (Valo X) for 10 s. The wounds were then topically infected with 10 µL of S. aureus LUH14616 suspension of 1 × 10^7 CFU/mL (final dose: 1 × 10^5 CFU/graft) in PBS for 1 h, followed by topical application of 10 µL of peptide solution for 4 h. Chlorhexidine (0.5% (v/v) in 70% ethanol; Entick B.V.) and PBS were used as positive and negative controls, respectively. After treatment, tissue samples were transferred to polypropylene vials containing 1 mL PBS supplemented with 0.025% (v/v) SPS and a 7 mm stainless steel bead. Homogenization was performed using a MagnaLyser System (Roche) with three 30-s cycles at 7,000 rpm, with 30 s of cooling on ice between cycles. Homogenates were 10-fold serially diluted in PBS, and 100 µL aliquots were plated on BA plates. CFUs were enumerated after overnight incubation at 37 °C.

[4] = tested on: TNF-α production by dTHP-1 macrophages stimulated with UV-inactivated S. aureus JAR060131; experiment: Endotoxin neutralization, UV-inactivated S. aureus-stimulated macrophages; type: cell-based; details: MOI 2 with 1 or 2 µM peptide, 4 h, ELISA, versus NT
Description: The endotoxin-neutralizing capacity of the peptides was assessed by measuring tumor necrosis factor-alpha (TNF-α) production by dTHP-1 macrophages. dTHP-1 macrophages were stimulated with either lipopolysaccharide (LPS; E. coli O111:B4; 5 ng/mL, Sigma-Aldrich) or UV-inactivated S. aureus JAR060131 (MOI 2; as described in Section 5.2), in the presence or absence of one or 2 µM peptides. Cells were cultured in serum-free RPMI and incubated for 4 h at 37 °C with 5% CO2. Positive controls consisted of cells stimulated with LPS or UV-S. aureus without peptide treatment (no treatment, NT), and unstimulated cells served as negative controls. After stimulation, cell supernatants were collected, and cytokine levels of TNF-α were quantified using human ELISA kits (R&D Systems, USA) according to the manufacturer’s instructions. Each condition was tested in triplicate.

A. baumannii RUH875 = experiment: Bactericidal (time-kill) kinetics; type: cell-based, Acinetobacter baumannii; details: for Time to complete killing: 3.75 µM peptide
Description: as §2

[5] = tested on: primary human venous endothelial cells (HUVECs); experiment: In vitro angiogenesis (tube formation) assay; type: cell-based; details: 4 h; for Number of tubular networks formed: 1 µM peptide, Matrigel, versus untreated control
Description: Primary human venous endothelial cells (HUVECs; CSC 2V0) were used to evaluate the in vitro angiogenic potential of peptides using a tube formation assay, adapted from Arnaoutova and Kleinman ([Arnaoutova and Kleinman, 2010]). Cells were cultured in low-serum endothelial cell growth medium 2 (2% v/v; Promo Cell). Briefly, 96-well plates were coated with 50 µL/well of phenol red-free, growth factor-reduced basement membrane matrix (Matrigel; Corning), and incubated at 37 °C for 1 h to allow gelation. […] Then, 100 µL of cell suspension (1.5 × 10^4 cells/well) was added to the Matrigel-coated wells in triplicate and incubated at 37 °C, 5% CO2 for 8 h. Tube formation was monitored using the IncuCyte S3 live-cell imaging system (Sartorius) with bright-field microscopy. Images were captured hourly, and the 4-h time point (corresponding to optimal tube formation) was used for analysis. The number of capillary-like structures was quantified using the “Angiogenesis Analyzer” plugin in ImageJ ([Carpentier et al., 2020]). Each peptide condition was tested in triplicate and repeated three times using different Matrigel batches to account for batch-to-batch variability.

[6] = 20 µM and 200 µM topical, 1 h infection, 4 h treatment, versus PBS (Figure 4B)

Row | Compound | Cytotoxicity threshold (tolerance), WST-1 and LDH [1] [µM] | Cytotoxicity, LDH leakage [1] [µM] | Cytotoxicity, Metabolic activity [1] [µM] | Cytotoxicity threshold (tolerance), WST-1 and LDH [2] [µM] | Cytotoxicity, LDH leakage [2] [µM] | Cytotoxicity, Metabolic activity [2] [µM] | Time to complete bacterial eradication (S. aureus JAR060131) | Log reduction in CFU (S. aureus JAR060131) [log] | Reduction of bacterial load (CFU counts) [3, 6] | Reduction of bacterial load after different infection durations ([3]; 200 µM for 4 h, started 0.5, 1 or 2 h post-infection (Figure 4D)) | Reduction of bacterial load (CFU counts) ([3]; 200 µM topical, 4 h treatment, versus PBS (Figure 4B), p < 0.05) | Reduction of bacterial load (CFU counts) ([3]; 200 µM topical, 4 h treatment, versus untreated control (Figure 4C), p < 0.001) | Effective bactericidal concentration ([3]; ex vivo wounded human skin, 4 h treatment) [µM] | Reduction of TNFα production induced by UV-inactivated S. aureus [4] | Time to complete killing (A. baumannii RUH875) [min] | Log reduction in CFU (A. baumannii RUH875; within 1 min at 3.75 µM) [log] | Number of tubular networks formed [5] | Concentration at which tube formation peaked ([5]; concentration series 0.5–3 µM) [µM] | Tube formation at 3 µM ([5]; concentration series 0.5–3 µM)
1 | N=C(N)NCCC[C@H](NC(=O)[C@H](Cc1c[nH]c2ccccc12)NC(=O)[C@H](CCC(N)=O)NC(=O)[C@H](Cc1c[nH]c2ccccc12)NC(=O)[C@H](CCCNC(=N)N)NC(=O)[C@@H](N)CCCNC(=N)N)C(=O)NC[C@H](NC(=O)[C@H](CCCNC(=N)N)NC(=O)[C@H](Cc1c[nH]c2ccccc12)NC(=O)[C@H](CCC(N)=O)NC(=O)[C@H](Cc1c[nH]c2ccccc12)NC(=O)[C@H](CCCNC(=N)N)NC(=O)[C@@H](N)CCCNC(=N)N)C(=O)NCCCCCC(=O)N[C@@H](CSSC[C@H](NC(=O)CCCCCNC(=O)[C@H](CNC(=O)[C@H](CCCNC(=N)N)NC(=O)[C@H](Cc1c[nH]c2ccccc12)NC(=O)[C@H](CCC(N)=O)NC(=O)[C@H](Cc1c[nH]c2ccccc12)NC(=O)[C@H](CCCNC(=N)N)NC(=O)[C@@H](N)CCCNC(=N)N)NC(=O)[C@H](CCCNC(=N)N)NC(=O)[C@H](Cc1c[nH]c2ccccc12)NC(=O)[C@H](CCC(N)=O)NC(=O)[C@H](Cc1c[nH]c2ccccc12)NC(=O)[C@H](CCCNC(=N)N)NC(=O)[C@@H](N)CCCNC(=N)N)C(N)=O)C(N)=O [LBT-1] (I: H-RRWQWR[Dap][Ahx]C-NH2 / II: H-RRWQWR[Dap][Ahx]C-NH2 / III: H-RRWQWR / IV: H-RRWQWR; amide I:7-III:C, II:7-IV:C; disulfide I:9-II:9; N-terminus and C-terminus assumed) | 7.5 to 15 | 7.5 | 15 | 15 | 15 | 15 | up to 120 min | > 3 | dose-dependent reduction | significantly reduced bacterial load in all groups | significant decrease | significantly reduced bacterial load | 200 | not observed | ≤ 30 | > 3 | significantly increasing the number of networks | 2 | declined
2 | N=C(N)NCCC[C@H](NC(=O)[C@H](Cc1c[nH]c2ccccc12)NC(=O)[C@H](CCC(N)=O)NC(=O)[C@H](Cc1c[nH]c2ccccc12)NC(=O)[C@H](CCCNC(=N)N)NC(=O)[C@@H](N)CCCNC(=N)N)C(=O)NCCCC[C@H](NC(=O)[C@H](CCCNC(=N)N)NC(=O)[C@H](Cc1c[nH]c2ccccc12)NC(=O)[C@H](CCC(N)=O)NC(=O)[C@H](Cc1c[nH]c2ccccc12)NC(=O)[C@H](CCCNC(=N)N)NC(=O)[C@@H](N)CCCNC(=N)N)C(=O)NCCCCCC(=O)N[C@@H](CSSC[C@H](NC(=O)CCCCCNC(=O)[C@H](CCCCNC(=O)[C@H](CCCNC(=N)N)NC(=O)[C@H](Cc1c[nH]c2ccccc12)NC(=O)[C@H](CCC(N)=O)NC(=O)[C@H](Cc1c[nH]c2ccccc12)NC(=O)[C@H](CCCNC(=N)N)NC(=O)[C@@H](N)CCCNC(=N)N)NC(=O)[C@H](CCCNC(=N)N)NC(=O)[C@H](Cc1c[nH]c2ccccc12)NC(=O)[C@H](CCC(N)=O)NC(=O)[C@H](Cc1c[nH]c2ccccc12)NC(=O)[C@H](CCCNC(=N)N)NC(=O)[C@@H](N)CCCNC(=N)N)C(N)=O)C(N)=O [LBT] (I: H-RRWQWRK[Ahx]C-NH2 / II: H-RRWQWRK[Ahx]C-NH2 / III: H-RRWQWR / IV: H-RRWQWR; amide I:7-III:C, II:7-IV:C; disulfide I:9-II:9; N-terminus and C-terminus assumed) | – | 15 | 30 | – | 30 | 30 | up to 120 min | > 3 | minimal and non-significant reductions | – | – | – | – | not observed | 120 | – | enhanced tube formation | – | –
